Results reported in patent US7531320B2, “Modulation of β-catenin/TCF-activated transcription” (priority 2003, dated 2009).

What was measured:
[1] = test system: SW480 cells; test: FACS cell cycle analysis (propidium iodide), SW480 cells; assay type: cell-based, human; details: 25 μM, 24 hours
Protocol: FIG. 6. • A. COMPOUND 1 arrests cells in G1. FACS analysis was performed on SW480 (lower panel) and HCT116 (upper panel) cells treated for 24 hours with either COMPOUND 1 (25 μM) (right) or control (0.5% DMSO (left). 5.5×10^6 cells were fixed and stained with propidium iodide (PI). G0/G1, S, and G2/M are indicated by arrows. • B. COMPOUND 1 selectively activates caspases in colon carcinoma cell lines. SW480 and HCT116 (left graph) cells (10^5) along with the normal colonocytes, CCD18Co (right graph) were treated with either control (0.5% DMSO) or COMPOUND 1 (25 μM). 24 hours post treatment, cells were lysed and the caspase-3/7 enzymatic activities were measured. Relative fluorescence units (RFU) were calculated by subtracting the unit values of the blank (control, without cells) from the treated samples (COMPOUND 1 or control) and plotted.
For FACS analysis, approx. 5×10^6 cells from PNRI-treated or vehicle-treated were fixed with 70% chilled ethanol and stored at −20° C. for at least 30 minutes. […] 10,000 stained cells for each sample were acquired using Beckman Coulter EPICS XL-MCL Flow Cytometry and the percentage of cells in different phase of the cell cycle was determined by Expo32 ADC software (Coulter Corporation, Miami, Fla., 33196). […]

[2] = target: T1, p300/β-catenin complex (Homo sapiens, UniProt Q09472); test: Co-immunoprecipitation of β-catenin with p300 in SW480 cells; assay type: cell-based; details: SW480 cells, 5 or 10 μM, 24 hours
T1 construct: endogenous in cells; host or cells: SW480
Protocol: (§1) FIG. 3. COMPOUND 1 disrupts the β-catenin/CBP complex but not the p300/β-catenin complex. • A. Full-length Xenopus laevis β-catenin (1.1, 2.2, and 3.3 μg) or murine CBP (0.14, 0.28, 0.55, 1.1, and 2.2 μg) plasmids were cotransfected in SW480 cells along with the β-catenin/TCF (1.1 μg) reporter gene construct. Empty pcDNA3 vector was used to equalize the amount of DNA used in each reaction. Dual luciferase assays were performed 24 hours post COMPOUND 1 treatment. All experiments were performed in duplicate and values plotted as means +/−standard deviation. • B. COMPOUND 1 competes with β-catenin for CBP. SW480 cells were treated with 5 or 10 μM of COMPOUND 1 or control (0.5% DMSO). 24 hours post treatment, lysates were incubated with beads coated with either control the antibody, or anti-CBP, or anti-p300 antibodies. Co-immunoprecipitated proteins were subjected to gel electrophoresis and immunoblotting using anti-β-catenin antibodies. The arrows point to the immunoprecipitated β-catenin (doublets). • C. CBP (1-111) is the minimal region of interaction with β-catenin. SW480 cells transfected with a CBP deletion series were subjected to immunoprecipitation using anti-β-catenin antibodies coated on Protein A-agarose beads. The immune complexes were washed and subjected to gel electrophoresis followed by immunoblotting using anti-His antibodies. […]
T1 sequence (Q09472 2-2414, one chain of several): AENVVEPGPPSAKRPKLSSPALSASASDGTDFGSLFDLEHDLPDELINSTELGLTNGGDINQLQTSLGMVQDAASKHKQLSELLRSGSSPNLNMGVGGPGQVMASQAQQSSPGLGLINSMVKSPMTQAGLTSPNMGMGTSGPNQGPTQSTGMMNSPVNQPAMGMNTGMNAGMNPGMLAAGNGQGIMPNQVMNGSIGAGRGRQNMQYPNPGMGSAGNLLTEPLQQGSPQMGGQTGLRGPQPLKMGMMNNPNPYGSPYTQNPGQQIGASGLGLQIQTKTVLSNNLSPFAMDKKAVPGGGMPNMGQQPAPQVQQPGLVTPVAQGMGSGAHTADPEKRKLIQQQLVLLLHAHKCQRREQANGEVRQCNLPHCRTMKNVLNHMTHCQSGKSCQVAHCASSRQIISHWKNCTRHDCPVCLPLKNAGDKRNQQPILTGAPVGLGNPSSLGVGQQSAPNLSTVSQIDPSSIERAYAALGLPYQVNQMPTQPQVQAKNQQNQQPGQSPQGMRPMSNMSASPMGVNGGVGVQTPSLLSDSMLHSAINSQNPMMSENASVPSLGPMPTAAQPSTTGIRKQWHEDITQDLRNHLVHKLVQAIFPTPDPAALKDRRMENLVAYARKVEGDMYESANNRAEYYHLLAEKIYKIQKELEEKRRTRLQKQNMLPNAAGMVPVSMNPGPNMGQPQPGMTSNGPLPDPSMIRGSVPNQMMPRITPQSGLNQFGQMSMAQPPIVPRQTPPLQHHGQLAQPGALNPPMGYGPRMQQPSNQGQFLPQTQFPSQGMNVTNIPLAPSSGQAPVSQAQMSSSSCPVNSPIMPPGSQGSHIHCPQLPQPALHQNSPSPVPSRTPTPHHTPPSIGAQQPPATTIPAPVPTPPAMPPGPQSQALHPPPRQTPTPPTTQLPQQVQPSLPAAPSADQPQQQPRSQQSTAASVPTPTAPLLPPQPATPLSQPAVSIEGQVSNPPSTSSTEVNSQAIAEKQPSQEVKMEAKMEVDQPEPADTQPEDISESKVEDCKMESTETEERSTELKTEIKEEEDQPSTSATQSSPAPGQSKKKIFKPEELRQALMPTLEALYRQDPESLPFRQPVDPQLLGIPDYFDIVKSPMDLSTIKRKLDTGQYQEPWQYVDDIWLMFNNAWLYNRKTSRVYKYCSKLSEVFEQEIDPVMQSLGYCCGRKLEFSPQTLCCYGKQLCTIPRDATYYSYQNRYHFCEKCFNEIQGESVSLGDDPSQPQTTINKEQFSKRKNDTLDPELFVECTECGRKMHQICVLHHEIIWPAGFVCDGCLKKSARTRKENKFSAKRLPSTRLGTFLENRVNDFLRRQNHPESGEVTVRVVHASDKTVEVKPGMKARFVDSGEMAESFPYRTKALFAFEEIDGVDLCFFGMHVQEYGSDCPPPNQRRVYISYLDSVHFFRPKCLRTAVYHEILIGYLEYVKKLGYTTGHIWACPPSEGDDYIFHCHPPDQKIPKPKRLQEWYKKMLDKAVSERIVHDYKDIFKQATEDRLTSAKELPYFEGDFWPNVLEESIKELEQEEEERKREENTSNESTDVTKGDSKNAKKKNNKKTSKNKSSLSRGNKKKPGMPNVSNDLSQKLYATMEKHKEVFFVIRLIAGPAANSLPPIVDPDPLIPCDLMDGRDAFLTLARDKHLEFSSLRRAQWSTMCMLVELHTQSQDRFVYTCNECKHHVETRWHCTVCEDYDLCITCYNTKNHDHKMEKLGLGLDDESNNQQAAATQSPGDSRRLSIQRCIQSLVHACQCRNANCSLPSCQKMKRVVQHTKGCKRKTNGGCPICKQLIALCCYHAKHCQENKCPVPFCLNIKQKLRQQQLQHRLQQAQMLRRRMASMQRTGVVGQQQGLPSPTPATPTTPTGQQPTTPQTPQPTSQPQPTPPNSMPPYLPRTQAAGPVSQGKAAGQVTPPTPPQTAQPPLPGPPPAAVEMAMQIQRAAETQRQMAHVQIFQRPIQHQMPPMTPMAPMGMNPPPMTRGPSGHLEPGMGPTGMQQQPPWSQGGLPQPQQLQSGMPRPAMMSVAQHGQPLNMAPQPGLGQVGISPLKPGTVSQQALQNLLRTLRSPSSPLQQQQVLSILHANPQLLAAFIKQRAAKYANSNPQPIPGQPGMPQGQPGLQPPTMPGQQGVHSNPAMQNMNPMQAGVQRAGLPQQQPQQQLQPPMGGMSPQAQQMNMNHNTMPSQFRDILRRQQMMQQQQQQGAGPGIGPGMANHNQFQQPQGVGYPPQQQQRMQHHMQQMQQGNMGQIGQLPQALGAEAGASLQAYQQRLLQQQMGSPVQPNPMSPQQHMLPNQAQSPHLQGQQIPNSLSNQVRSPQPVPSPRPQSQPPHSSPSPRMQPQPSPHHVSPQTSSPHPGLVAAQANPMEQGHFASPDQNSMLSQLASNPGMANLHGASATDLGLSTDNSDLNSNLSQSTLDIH

[3] = target: T2, p300/β-catenin complex (Homo sapiens, UniProt Q09472); test: as above; assay type: cell-based; details: p300 (1-111), (1-211), (1-351), 50 μM COMPOUND 1
T2 construct: endogenous in cells; host or cells: SW480
Protocol: as §1
T2 sequence (Q09472 1-111, one chain of several): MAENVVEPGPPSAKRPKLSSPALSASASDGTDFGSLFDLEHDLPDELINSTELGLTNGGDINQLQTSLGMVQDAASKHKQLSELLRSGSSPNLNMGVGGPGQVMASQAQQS

Question: Which results are given for `O=C1C(Cc2ccc(O)cc2)N2C(=O)CCN(C(=O)NCc3ccccc3)C2CN1Cc1cccc2ccccc12` (stereo not drawn) [COMPOUND 1]?
Answer: Cell cycle distribution (DNA content by FACS) [1]: increased accumulation at G1/S-phase; Binding of β-catenin to p300 (immunoprecipitation) [2]: did not interfere; p300 fragments binding to immunoprecipitated β-catenin in presence of excess COMPOUND 1 [3]: had no effect
